According to ChEMBL document CHEMBL5724696, “Autophagy assay results for EUbOPEN Chemogenomics Library” (2024):

Key:
Format in all cases: functional, Homo sapiens
TERT-RPE1 = assay: (§1) Here: values are normalized to the negative (DMSO; defined as 0% autophagy induction) and positive (250nM Torin1; mTOR inhibitor; defined as maximal inducer of autophagy = 100%) control compounds and represented as % of autophagy induction. […] The impact of autophagy induction on cells is complex and depends on the affected target. As such, the magnitude of a phenotype may not be equally mirrored in the %-value of autophagy induction and vice versa. The dynamics of the induction may indicate the mode of activation: e.g. activation via phosphorylation or a signaling cascade may occur fast, while activation via transcription factors may take considerably longer. […] Of note, treatment concentrations may be sub-optimal for specific compounds, leading to false negative annotations.; settings: Culturing Media DMEM/F12 (1:1), 1 % Penicillin/Streptomycin, 10% Fetal bovin serum Add-On: No, Screening Media Control DMEM/F12 (1:1), Screening Media Samples DMEM/F12 (1:1)
U2OS [1] = assay: as §1; settings: Culturing Media DMEM, 1 % Penicillin/Streptomycin, 10% Fetal bovin serum Add-On: No, Screening Media Control DMEM, Screening Media Samples DMEM
U2OS [2] = assay: as §1; settings: Culturing Media DMEM, 1 % Penicillin/Streptomycin, 10% Fetal bovin serum Add-On: No, Screening Media Control DMEM, Screening Media Samples DMEM; remark: listed apart in the source
[3] = Compound Concentration 0.5 uM, Timepoint 12 hours
[4] = Compound Concentration 0.5 uM, Timepoint 24 hours
[5] = Compound Concentration 0.5 uM, Timepoint 36 hours
[6] = Compound Concentration 0.5 uM, Timepoint 60 hours
[7] = Compound Concentration 2 uM, Timepoint 12 hours
[8] = Compound Concentration 2 uM, Timepoint 24 hours
[9] = Compound Concentration 2 uM, Timepoint 36 hours
[10] = Compound Concentration 2 uM, Timepoint 60 hours
[11] = Compound Concentration 10 uM, Timepoint 12 hours
[12] = Compound Concentration 10 uM, Timepoint 24 hours
[13] = Compound Concentration 10 uM, Timepoint 36 hours
[14] = Compound Concentration 10 uM, Timepoint 60 hours

CN(C(=O)Cc1ccc(Cl)c(Cl)c1)C(CN1CCCC1)c1cccc(OCC(=O)O)c1.Cl (centres undefined)
autophagy induction (TERT-RPE1; [3]): -10.9051% | autophagy induction (TERT-RPE1; [4]): -12.2301% | autophagy induction (TERT-RPE1; [5]): -15.6398% | autophagy induction (TERT-RPE1; [6]): -20.341% | autophagy induction (TERT-RPE1; [7]): -5.691% | autophagy induction (TERT-RPE1; [8]): -6.772% | autophagy induction (TERT-RPE1; [9]): -9.058% | autophagy induction (TERT-RPE1; [10]): -11.2679% | autophagy induction (TERT-RPE1; [11]): -5.196% | autophagy induction (TERT-RPE1; [12]): -4.57% | autophagy induction (TERT-RPE1; [13]): -3.728% | autophagy induction (TERT-RPE1; [14]): -2.992% | autophagy induction (U2OS [1]; [3]): -12.8922% | autophagy induction (U2OS [1]; [4]): -7.849% | autophagy induction (U2OS [1]; [5]): -3.698% | autophagy induction (U2OS [1]; [6]): -1.542% | autophagy induction (U2OS [1]; [7]): -9.267% | autophagy induction (U2OS [1]; [8]): -3.553% | autophagy induction (U2OS [1]; [9]): -1.479% | autophagy induction (U2OS [1]; [10]): -2.0456% | autophagy induction (U2OS [1]; [11]): -0.2023% | autophagy induction (U2OS [1]; [12]): 1.762% | autophagy induction (U2OS [1]; [13]): 0.1182% | autophagy induction (U2OS [1]; [14]): 0.3636% | autophagy induction (U2OS [2]; [3]): 2.144% | autophagy induction (U2OS [2]; [4]): -2.707% | autophagy induction (U2OS [2]; [5]): 1.07% | autophagy induction (U2OS [2]; [6]): 1.175% | autophagy induction (U2OS [2]; [7]): -9.959% | autophagy induction (U2OS [2]; [8]): -4.957% | autophagy induction (U2OS [2]; [9]): -10.0899% | autophagy induction (U2OS [2]; [10]): -9.274% | autophagy induction (U2OS [2]; [11]): -7.228% | autophagy induction (U2OS [2]; [12]): -6.505% | autophagy induction (U2OS [2]; [13]): 0.1565% | autophagy induction (U2OS [2]; [14]): 0.07233%

Cc1c(P(=S)(c2ccccc2)c2ccccc2)n2ccccc2[n+]1C/C=C/c1ccccc1.[Br-]
autophagy induction (TERT-RPE1; [3]): -3.105% | autophagy induction (TERT-RPE1; [4]): -8.592% | autophagy induction (TERT-RPE1; [5]): -12.0302% | autophagy induction (TERT-RPE1; [6]): -17.0508% | autophagy induction (TERT-RPE1; [7]): 2.878% | autophagy induction (TERT-RPE1; [8]): -0.5859% | autophagy induction (TERT-RPE1; [9]): 1.195% | autophagy induction (TERT-RPE1; [10]): -1.818% | autophagy induction (TERT-RPE1; [11]): 24.7841% | autophagy induction (TERT-RPE1; [12]): 51.8106% | autophagy induction (TERT-RPE1; [13]): 73.7567% | autophagy induction (TERT-RPE1; [14]): 96.4076% | autophagy induction (U2OS [1]; [3]): -4.037% | autophagy induction (U2OS [1]; [4]): -2.741% | autophagy induction (U2OS [1]; [5]): -2.914% | autophagy induction (U2OS [1]; [6]): -1.509% | autophagy induction (U2OS [1]; [7]): -1.2597% | autophagy induction (U2OS [1]; [8]): -1.1621% | autophagy induction (U2OS [1]; [9]): -2.341% | autophagy induction (U2OS [1]; [10]): -2.536% | autophagy induction (U2OS [1]; [11]): -27.5654% | autophagy induction (U2OS [1]; [12]): -9.802% | autophagy induction (U2OS [1]; [13]): -1.3311% | autophagy induction (U2OS [1]; [14]): 3.649% | autophagy induction (U2OS [2]; [3]): -3.655% | autophagy induction (U2OS [2]; [4]): 0.9546% | autophagy induction (U2OS [2]; [5]): -1.282% | autophagy induction (U2OS [2]; [6]): 2.215% | autophagy induction (U2OS [2]; [7]): -8.9% | autophagy induction (U2OS [2]; [8]): -2.047% | autophagy induction (U2OS [2]; [9]): 1.308% | autophagy induction (U2OS [2]; [10]): 3.722% | autophagy induction (U2OS [2]; [11]): 47.8904% | autophagy induction (U2OS [2]; [12]): 55.2067% | autophagy induction (U2OS [2]; [13]): 55.7211% | autophagy induction (U2OS [2]; [14]): 73.829%

N#Cc1cccc(C(=O)Nc2cc(-c3ccccc3)nn2-c2ccccc2)c1
autophagy induction (TERT-RPE1; [3]): -7.699% | autophagy induction (TERT-RPE1; [4]): -6.069% | autophagy induction (TERT-RPE1; [5]): 3.327% | autophagy induction (TERT-RPE1; [6]): 19.4837% | autophagy induction (TERT-RPE1; [7]): -8.111% | autophagy induction (TERT-RPE1; [8]): -9.075% | autophagy induction (TERT-RPE1; [9]): -9.172% | autophagy induction (TERT-RPE1; [10]): -3.858% | autophagy induction (TERT-RPE1; [11]): -3.603% | autophagy induction (TERT-RPE1; [12]): -4.896% | autophagy induction (TERT-RPE1; [13]): -4.571% | autophagy induction (TERT-RPE1; [14]): -1.999% | autophagy induction (U2OS [1]; [3]): -5.641% | autophagy induction (U2OS [1]; [4]): -2.328% | autophagy induction (U2OS [1]; [5]): -2.122% | autophagy induction (U2OS [1]; [6]): -3.431% | autophagy induction (U2OS [1]; [7]): 0.2801% | autophagy induction (U2OS [1]; [8]): -3.069% | autophagy induction (U2OS [1]; [9]): -2.148% | autophagy induction (U2OS [1]; [10]): -2.332% | autophagy induction (U2OS [1]; [11]): -0.7756% | autophagy induction (U2OS [1]; [12]): -1.607% | autophagy induction (U2OS [1]; [13]): -0.5457% | autophagy induction (U2OS [1]; [14]): -0.9476% | autophagy induction (U2OS [2]; [3]): 0.2338% | autophagy induction (U2OS [2]; [4]): 1.876% | autophagy induction (U2OS [2]; [5]): 9.199% | autophagy induction (U2OS [2]; [6]): 8.756% | autophagy induction (U2OS [2]; [7]): -6.937% | autophagy induction (U2OS [2]; [8]): -1.593% | autophagy induction (U2OS [2]; [9]): 2.3802% | autophagy induction (U2OS [2]; [10]): -5.115% | autophagy induction (U2OS [2]; [11]): 0.7229% | autophagy induction (U2OS [2]; [12]): 5.625% | autophagy induction (U2OS [2]; [13]): -1.742% | autophagy induction (U2OS [2]; [14]): -2.793%

Cc1cn2cc(CC(=O)N3CCC4(CC3)CN(Cc3ccc(-n5nccn5)cc3Cl)C4)nc2s1
autophagy induction (TERT-RPE1; [3]): -2.947% | autophagy induction (TERT-RPE1; [4]): -6.082% | autophagy induction (TERT-RPE1; [5]): -10.2542% | autophagy induction (TERT-RPE1; [6]): -15.5621% | autophagy induction (TERT-RPE1; [7]): -4.023% | autophagy induction (TERT-RPE1; [8]): -6.112% | autophagy induction (TERT-RPE1; [9]): -7.965% | autophagy induction (TERT-RPE1; [10]): -11.2776% | autophagy induction (TERT-RPE1; [11]): 6.864% | autophagy induction (TERT-RPE1; [12]): 5.224% | autophagy induction (TERT-RPE1; [13]): 5.8937% | autophagy induction (TERT-RPE1; [14]): 9.679% | autophagy induction (U2OS [1]; [3]): 1.123% | autophagy induction (U2OS [1]; [4]): -3.762% | autophagy induction (U2OS [1]; [5]): -1.928% | autophagy induction (U2OS [1]; [6]): -1.19% | autophagy induction (U2OS [1]; [7]): -4.678% | autophagy induction (U2OS [1]; [8]): -1.951% | autophagy induction (U2OS [1]; [9]): -1.585% | autophagy induction (U2OS [1]; [10]): -1.336% | autophagy induction (U2OS [1]; [11]): -3.342% | autophagy induction (U2OS [1]; [12]): -3.411% | autophagy induction (U2OS [1]; [13]): -3.208% | autophagy induction (U2OS [1]; [14]): -4.891% | autophagy induction (U2OS [2]; [3]): -19.4257% | autophagy induction (U2OS [2]; [4]): -11.2688% | autophagy induction (U2OS [2]; [5]): -14.8033% | autophagy induction (U2OS [2]; [6]): -9.0407% | autophagy induction (U2OS [2]; [7]): 2.217% | autophagy induction (U2OS [2]; [8]): 1.46% | autophagy induction (U2OS [2]; [9]): 0.9512% | autophagy induction (U2OS [2]; [10]): 5.325% | autophagy induction (U2OS [2]; [11]): -2.971% | autophagy induction (U2OS [2]; [12]): 3.988% | autophagy induction (U2OS [2]; [13]): 2.68% | autophagy induction (U2OS [2]; [14]): 3.422%
